According to paper PMC9295122, “Sialic Acid Derivatives Inhibit SiaT Transporters and Delay Bacterial Growth” (ACS Chemical Biology, 2022):

Tested on: S. aureus strain COL
Assay: Bacterial growth assay in MM with Neu5Ac, S. aureus
Format: cell-based, Staphylococcus aureus
Conditions: MM + Neu5Ac 3.2 mM, compound 0.5 mM, P < 0.001
Description: To investigate the efficacy of compounds 3e and 3f in inhibiting the uptake of Neu5Ac, bacterial growth assays were performed on a uropathogenic P. mirabilis strain HI4320 and a clinical HA-MRSA isolate S. aureus strain COL. The goal was to verify that compounds 3e and 3f alter bacterial growth when grown on Neu5Ac as an additional carbon source. Growth alteration would indicate Neu5Ac uptake impairment, thus validating our approach.
We first addressed whether these bacteria were able to catabolize the inhibitors and potentially use them as a carbon source for growth. Each strain was grown in carbon-limited defined minimal media (MM), without any carbon source other than sodium citrate for P. mirabilis and casamino acids for S. aureus, and supplemented with 3e and 3f. […] With these promising results, bacterial growth assays were performed in MM supplemented with Neu5Ac at a concentration of 3.2 mM and with 0.5 mM of compounds 3e and 3f (Figure 6a,b). The lag phase duration was determined as the time for the initial population density to increase twofold (see the horizontal dashed lines in Figure 6a,b). […] In the case of P. mirabilis, compound 3e indicated a delay in growth (3 h, P = 0.06), while no effect was recorded for compound 3f. […]

For `CC(=O)NC1C(OCc2cc(F)cc(F)c2)CC(O)(C(=O)O)OC1C(O)C(O)CO` (centres unmarked) [Compound 3e], the “delayed growth (lag phase)” value was 4.4 h.

`CC(=O)NC1C(OCc2cc(Br)cc(Br)c2)CC(O)(C(=O)O)OC1C(O)C(O)CO` (centres unmarked) [Compound 3f] was tested, and the “delayed growth (lag phase)” value was 9.4 h.
